From patent publication US9101638B2, “Boronic acid derivatives and therapeutic uses thereof” (Rempex Pharmaceuticals, Inc., priority 2013, dated 2015)
Read-outs that look alike come from different tables or passages of the source.

How the values were obtained:
ec308 (SHV-5) [1] = test: Potentiation of aztreonam, strain ec308; format: cell-based; details: minimum BLI concentration inhibiting growth with 4 μg/mL aztreonam
KP1004 (K-2) = test: Potentiation of aztreonam, strain KP1004; format: cell-based; details: minimum BLI concentration inhibiting growth with 4 μg/mL aztreonam
ECL1002 = test: Potentiation of aztreonam, strain ECL1002; format: cell-based; details: minimum BLI concentration inhibiting growth with 4 μg/mL aztreonam
ec308 (SHV-5) [2] = test: Potentiation of tigemonam, strain ec308; format: cell-based; details: minimum BLI concentration inhibiting growth with 4 μg/mL tigemonam
SHV-12 = SHV-12 (Klebsiella pneumoniae, UniProt P0AD64, E235K/G234S/L31Q); test: Inhibition of nitrocefin cleavage by purified SHV-12; format: biochemical
Method in brief: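 Readout: nitrocefin hydrolysis, A490 recorded every 10 sec over 10 min. Enzyme and inhibitor (varied concentrations) preincubated 10 min, RT, in reaction buffer before substrate addition.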

Trypsin = target: T1, Trypsin (Bos taurus, UniProt P00760); test: Serine protease inhibition: trypsin; format: biochemical, mammalian; details: Table 8A, class symbols; read-out: IC50 Trypsin
T1 construct: purchased Calbiochem 6502
T1 sequence (P00760 24-246): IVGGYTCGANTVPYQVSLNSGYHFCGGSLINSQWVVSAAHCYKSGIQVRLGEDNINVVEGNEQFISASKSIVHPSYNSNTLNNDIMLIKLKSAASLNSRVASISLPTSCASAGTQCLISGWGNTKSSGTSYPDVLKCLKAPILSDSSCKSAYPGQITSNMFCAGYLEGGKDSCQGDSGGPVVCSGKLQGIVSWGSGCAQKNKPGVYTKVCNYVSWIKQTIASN
Procedure: (§1) The effect of selected BLIs on the enzymatic activity of some common mammalian serine proteases was evaluated.
(§2) 50 μl of the diluted enzyme was mixed with 50 μl of inhibitor at various concentrations and 50 μl of corresponding buffer (Table 7). Reaction mixtures were incubated for 10 min at 37° C. Subsequently, 50 μl of corresponding substrate (Table 7) was added and absorbance or fluorescence was monitored for 30 min on SpectraMax M2 plate reader (Molecular Devices). 4-(2-Aminoethyl)benzenesulfonyl fluoride hydrochloride (AEBSF) and leupeptin were used as positive controls. Rates of reaction were calculated and presented relative to “no treatment” control.

Thrombin = target: T2, Thrombin (Homo sapiens, UniProt P00734); test: Serine protease inhibition: thrombin; format: biochemical, mammalian; details: Table 8A, class symbols; read-out: IC50 Thrombin
T2 construct: Thrombin; MPBio; 19491880; purchased MPBio 19491880
Procedure: as §1, §2

Plasmin = target: T3, Plasmin (Homo sapiens, UniProt P00747); test: Serine protease inhibition: plasmin; format: biochemical, mammalian; details: Table 8A, class symbols; read-out: IC50 Plasmin
T3 construct: Plasmin; MPBio; 19419890; purchased MPBio 19419890
Procedure: as §1, §2

Elastase = target: T4, Elastase (Sus scrofa, UniProt P00772); test: Serine protease inhibition: elastase; format: biochemical, mammalian; details: Table 8A, class symbols; read-out: IC50 Elastase
T4 construct: purchased Calbiochem 324682
Procedure: as §1, §2

Chymase = target: T5, Chymase (Homo sapiens, UniProt P23946); test: Serine protease inhibition: chymase; format: biochemical, mammalian; details: Table 8A, class symbols; read-out: IC50 Chymase
T5 construct: purchased Enzo Lifescience BML-SE281
T5 sequence (P23946 22-247): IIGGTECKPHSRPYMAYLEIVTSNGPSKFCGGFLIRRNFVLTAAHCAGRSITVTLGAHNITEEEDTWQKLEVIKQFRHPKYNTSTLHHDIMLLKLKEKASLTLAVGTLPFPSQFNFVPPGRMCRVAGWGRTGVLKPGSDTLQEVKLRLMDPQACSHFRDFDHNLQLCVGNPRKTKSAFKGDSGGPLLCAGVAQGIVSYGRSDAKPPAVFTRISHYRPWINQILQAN
Procedure: as §1, §2

CathepsinA = target: T6, CathepsinA (Homo sapiens, UniProt P10619); test: Serine protease inhibition: cathepsin A; format: biochemical, mammalian; details: Table 8B; read-out: IC50 CathepsinA
T6 construct: purchased R&D Systems 1049-SE
T6 sequence (P10619 29-480): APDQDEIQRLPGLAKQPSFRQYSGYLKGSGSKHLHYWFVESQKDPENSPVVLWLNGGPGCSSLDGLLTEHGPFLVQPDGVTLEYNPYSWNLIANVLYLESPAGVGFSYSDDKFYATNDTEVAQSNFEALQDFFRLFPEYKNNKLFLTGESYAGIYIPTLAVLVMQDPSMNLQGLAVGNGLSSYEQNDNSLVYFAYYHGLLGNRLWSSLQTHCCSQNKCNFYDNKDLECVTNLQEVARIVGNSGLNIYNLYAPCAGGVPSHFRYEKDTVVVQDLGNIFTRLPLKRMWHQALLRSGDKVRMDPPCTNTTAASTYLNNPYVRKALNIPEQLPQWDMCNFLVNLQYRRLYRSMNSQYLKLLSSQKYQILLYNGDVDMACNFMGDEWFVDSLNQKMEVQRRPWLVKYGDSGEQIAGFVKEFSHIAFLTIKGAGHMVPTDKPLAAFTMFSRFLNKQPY
Method in brief: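 Each diluted enzyme preincubated 10 min at 37° C with compound at various concentrations in its own buffer, then its substrate added and absorbance or fluorescence followed 30 min. Reaction rates expressed relative to untreated control; AEBSF and leupeptin as positive controls.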

CathepsinG = target: T7, CathepsinG (Homo sapiens, UniProt P08311); test: Serine protease inhibition: cathepsin G; format: biochemical, mammalian; details: Table 8B
T7 construct: purchased EMD Millipore 219373
T7 sequence (P08311 21-244): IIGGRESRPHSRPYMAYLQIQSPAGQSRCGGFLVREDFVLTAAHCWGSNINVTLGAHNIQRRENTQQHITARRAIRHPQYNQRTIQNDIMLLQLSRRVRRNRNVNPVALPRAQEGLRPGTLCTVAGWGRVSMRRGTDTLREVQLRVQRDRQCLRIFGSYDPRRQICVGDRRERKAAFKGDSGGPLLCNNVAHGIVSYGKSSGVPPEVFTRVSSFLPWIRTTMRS
Procedure: as §1, §2

[3] = target: T8, Dipeptidyl peptidase 7 (DPP7) (Homo sapiens, UniProt Q9UHL4); test: Serine protease inhibition: DPP7; format: biochemical, mammalian; details: Table 8B; read-out: IC50 DPP7
T8 construct: purchased R&D Systems 3438-SE
Procedure: as §1, §2

[4] = target: T9, Dipeptidyl peptidase 8 (DPP8) (Homo sapiens, UniProt Q6V1X1); test: Serine protease inhibition: DPP8; format: biochemical, mammalian; details: Table 8B; read-out: IC50 DPP8
T9 construct: purchased BPS Bioscience 80080
Procedure: as §1, §2

[5] = target: T10, Dipeptidyl peptidase 9 (DPP9) (Homo sapiens, UniProt Q86TI2); test: Serine protease inhibition: DPP9; format: biochemical, mammalian; details: Table 8B; read-out: IC50 DPP9
T10 construct: purchased BPS Bioscience 80090
Procedure: as §1, §2

KP1009 (CTX-M-15) = test: Potentiation of tigemonam, strain KP1009; details: minimum BLI concentration inhibiting growth with 4 μg/mL tigemonam
[6] = nitrocefin reporter substrate, purified enzyme, read-out: Ki (SHV-12, NCF)

T10 sequence (Q86TI2 whole entry): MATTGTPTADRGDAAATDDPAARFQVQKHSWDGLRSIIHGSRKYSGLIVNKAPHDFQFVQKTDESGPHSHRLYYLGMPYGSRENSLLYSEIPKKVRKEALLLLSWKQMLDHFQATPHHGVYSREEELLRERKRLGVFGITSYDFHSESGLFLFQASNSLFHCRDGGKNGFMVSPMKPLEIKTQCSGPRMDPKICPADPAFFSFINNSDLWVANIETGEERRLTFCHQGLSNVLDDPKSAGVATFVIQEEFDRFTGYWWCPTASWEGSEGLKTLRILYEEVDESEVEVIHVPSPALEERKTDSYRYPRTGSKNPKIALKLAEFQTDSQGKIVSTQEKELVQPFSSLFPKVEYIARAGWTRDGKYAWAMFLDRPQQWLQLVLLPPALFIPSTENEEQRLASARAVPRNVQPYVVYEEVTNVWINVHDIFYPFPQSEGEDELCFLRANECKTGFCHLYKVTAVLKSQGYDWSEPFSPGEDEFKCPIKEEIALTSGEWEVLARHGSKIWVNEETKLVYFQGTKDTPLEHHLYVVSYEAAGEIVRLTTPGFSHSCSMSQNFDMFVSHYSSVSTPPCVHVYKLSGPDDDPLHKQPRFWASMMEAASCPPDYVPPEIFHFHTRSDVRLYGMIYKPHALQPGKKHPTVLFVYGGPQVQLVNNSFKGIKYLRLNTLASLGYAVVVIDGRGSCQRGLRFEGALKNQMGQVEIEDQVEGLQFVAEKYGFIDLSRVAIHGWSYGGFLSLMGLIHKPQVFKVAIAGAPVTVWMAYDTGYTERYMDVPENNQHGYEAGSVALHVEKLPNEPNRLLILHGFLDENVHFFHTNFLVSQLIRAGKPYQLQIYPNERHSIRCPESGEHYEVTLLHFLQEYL
Sequence of SHV-12 (P0AD64 22-286 L31Q/G234S/E235K): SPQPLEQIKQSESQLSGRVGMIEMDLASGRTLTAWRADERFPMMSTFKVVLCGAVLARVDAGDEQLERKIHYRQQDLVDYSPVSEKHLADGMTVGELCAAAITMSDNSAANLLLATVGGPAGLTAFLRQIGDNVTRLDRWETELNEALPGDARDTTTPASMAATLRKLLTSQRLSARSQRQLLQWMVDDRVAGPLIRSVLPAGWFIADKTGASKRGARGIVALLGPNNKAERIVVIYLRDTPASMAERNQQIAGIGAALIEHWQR
T3 sequence (P00747 581-810 limits assumed, species assumed): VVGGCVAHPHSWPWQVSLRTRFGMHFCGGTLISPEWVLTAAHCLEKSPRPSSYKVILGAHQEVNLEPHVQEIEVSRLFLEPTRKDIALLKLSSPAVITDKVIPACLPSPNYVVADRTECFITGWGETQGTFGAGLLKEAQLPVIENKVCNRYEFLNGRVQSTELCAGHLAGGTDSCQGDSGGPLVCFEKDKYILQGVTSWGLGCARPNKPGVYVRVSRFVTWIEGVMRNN
T3 sequence (P00747 97-580 partner limits assumed, species assumed): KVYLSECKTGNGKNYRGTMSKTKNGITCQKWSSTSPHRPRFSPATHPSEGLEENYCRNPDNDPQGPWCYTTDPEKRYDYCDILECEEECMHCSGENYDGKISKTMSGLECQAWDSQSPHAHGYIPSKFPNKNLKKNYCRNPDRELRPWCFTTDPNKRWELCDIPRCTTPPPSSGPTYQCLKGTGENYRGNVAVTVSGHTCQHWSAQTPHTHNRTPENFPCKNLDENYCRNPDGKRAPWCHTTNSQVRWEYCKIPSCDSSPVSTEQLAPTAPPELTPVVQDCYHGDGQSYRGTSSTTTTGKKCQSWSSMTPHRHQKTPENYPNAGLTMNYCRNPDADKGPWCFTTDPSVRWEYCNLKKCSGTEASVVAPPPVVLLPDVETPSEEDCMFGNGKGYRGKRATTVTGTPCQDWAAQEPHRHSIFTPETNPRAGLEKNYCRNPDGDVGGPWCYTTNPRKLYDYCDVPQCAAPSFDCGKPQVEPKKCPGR
T4 sequence (P00772 27-266): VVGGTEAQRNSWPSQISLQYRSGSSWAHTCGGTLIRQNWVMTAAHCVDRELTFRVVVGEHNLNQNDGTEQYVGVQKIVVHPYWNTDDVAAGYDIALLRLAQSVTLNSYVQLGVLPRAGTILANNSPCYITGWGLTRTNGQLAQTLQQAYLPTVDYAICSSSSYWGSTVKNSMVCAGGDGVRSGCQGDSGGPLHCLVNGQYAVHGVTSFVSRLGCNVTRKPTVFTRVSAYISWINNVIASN
T9 sequence (Q6V1X1 whole entry): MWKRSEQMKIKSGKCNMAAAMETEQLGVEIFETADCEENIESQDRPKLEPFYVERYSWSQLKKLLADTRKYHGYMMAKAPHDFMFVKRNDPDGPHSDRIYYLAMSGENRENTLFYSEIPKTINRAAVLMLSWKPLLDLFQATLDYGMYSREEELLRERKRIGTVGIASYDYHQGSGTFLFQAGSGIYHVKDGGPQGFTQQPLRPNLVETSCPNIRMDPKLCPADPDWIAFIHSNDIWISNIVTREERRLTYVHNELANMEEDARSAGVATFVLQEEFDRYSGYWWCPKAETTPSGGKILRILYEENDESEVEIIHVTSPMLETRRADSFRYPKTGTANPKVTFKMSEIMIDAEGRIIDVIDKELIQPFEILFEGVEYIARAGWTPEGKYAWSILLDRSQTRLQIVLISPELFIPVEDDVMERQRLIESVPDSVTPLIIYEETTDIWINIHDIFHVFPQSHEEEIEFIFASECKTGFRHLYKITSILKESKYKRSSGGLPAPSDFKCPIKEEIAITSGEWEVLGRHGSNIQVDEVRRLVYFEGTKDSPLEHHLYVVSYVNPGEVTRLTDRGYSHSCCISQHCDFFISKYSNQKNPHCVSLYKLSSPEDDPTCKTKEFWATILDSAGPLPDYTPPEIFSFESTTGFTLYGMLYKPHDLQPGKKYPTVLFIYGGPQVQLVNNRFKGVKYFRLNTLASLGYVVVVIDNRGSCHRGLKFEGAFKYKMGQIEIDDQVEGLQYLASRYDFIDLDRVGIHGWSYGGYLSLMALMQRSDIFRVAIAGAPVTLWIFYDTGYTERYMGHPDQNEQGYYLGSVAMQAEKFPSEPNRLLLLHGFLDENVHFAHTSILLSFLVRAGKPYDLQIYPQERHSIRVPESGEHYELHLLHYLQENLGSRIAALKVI

| SMILES | AZT MPC4 SHV-5 ec308 (ec308 (SHV-5) [1]) | AZT MPC4 K-2 KP1004 (KP1004 (K-2)) | AZT MPC4 ECL1002 (ECL1002) | TIG MPC4 SHV-5 ec308 (ec308 (SHV-5) [2]) | Ki (SHV-12; [6]) | IC50 (Trypsin) | IC50 (Thrombin) | IC50 (Plasmin) | IC50 (Elastase) | IC50 (Chymase) | IC50 (CathepsinA) | IC50 (CathepsinG) | IC50 [3] | IC50 [4] | IC50 [5] | TIG MPC4 CTX-M-15 KP1009 (KP1009 (CTX-M-15)) | Ki (SHV-12) |
| --- | --- | --- | --- | --- | --- | --- | --- | --- | --- | --- | --- | --- | --- | --- | --- | --- | --- |
| O=C(CSC(F)F)N[C@H]1Cc2cccc(C(=O)O)c2OB1O [Compound 3, (R)-3-(2-(difluoromethylthio)acetamido)-2-hydroxy-3,4-dihydro-2H-benzo[e][1,2]oxaborinine-8-carboxylic acid] | X (X = MIC of less than 1 μg/mL) | Y (Y = MIC of 1 μg/mL to 10 μg/mL) | Y (Y = MIC of 1 μg/mL to 10 μg/mL) | X (X = MIC of less than 1 μg/mL) | < 1 nM | > 800 µM | > 800 µM | > 800 µM | > 800 µM | 300 to 800 µM | < 15 µM | < 15 µM | > 500 µM | > 500 µM | > 500 µM | X (X = MIC of less than 1 μg/mL) |  |
| O=C(CSc1nncs1)N[C@H]1Cc2cccc(C(=O)O)c2OB1O [Compound 7, (R)-3-(2-(1,3,4-thiadiazol-2-ylthio)acetamido)-2-hydroxy-3,4-dihydro-2H-benzo[e][1,2]oxaborinine-8-carboxylic acid] | X (X = MIC of less than 1 μg/mL) | Y (Y = MIC of 1 μg/mL to 10 μg/mL) | Y (Y = MIC of 1 μg/mL to 10 μg/mL) | X (X = MIC of less than 1 μg/mL) | < 1 nM | > 800 µM | > 800 µM | > 800 µM | > 800 µM | > 800 µM | 15 to 500 µM | 15 to 500 µM | > 500 µM | 15 to 500 µM | > 500 µM | X (X = MIC of less than 1 μg/mL) |  |
| CSC(=O)N[C@H]1Cc2cccc(C(=O)O)c2OB1O [Compound 11, (R)-2-hydroxy-3-(methylthiocarbonylamino)-3,4-dihydro-2H-benzo[e][1,2]oxaborinine-8-carboxylic acid] | X (X = MIC of less than 1 μg/mL) | Y (Y = MIC of 1 μg/mL to 10 μg/mL) | Y (Y = MIC of 1 μg/mL to 10 μg/mL) | Y (Y = MIC of 1 μg/mL to 10 μg/mL) |  | > 800 µM | > 800 µM | > 800 µM | > 800 µM | > 800 µM | 15 to 500 µM | 15 to 500 µM | > 500 µM | > 500 µM | > 500 µM | Y (Y = MIC of 1 μg/mL to 10 μg/mL) | < 1 nM |
| O=CN[C@H]1Cc2cccc(C(=O)O)c2OB1O [Compound 4, (R)-3-formamido-2-hydroxy-3,4-dihydro-2H-benzo[e][1,2]oxaborinine-8-carboxylic acid] | Y (Y = MIC of 1 μg/mL to 10 μg/mL) | X (X = MIC of less than 1 μg/mL) | Y (Y = MIC of 1 μg/mL to 10 μg/mL) | Y (Y = MIC of 1 μg/mL to 10 μg/mL) | 1 to 10 nM | > 800 µM | > 800 µM | > 800 µM | > 800 µM | > 800 µM | > 500 µM | 15 to 500 µM | > 500 µM | > 500 µM | > 500 µM | Y (Y = MIC of 1 μg/mL to 10 μg/mL) |  |
